Assay [1] deals with hypercholesterolemic (cholesterol-fed) hamsters. As to the kind of experiment: Antihypercholesterolemic activity in cholesterol-fed hamsters. The format is in vivo, hamster. Particulars: two weeks; for Serum Cholesterol, Treated: mean ± SEM, n = 9-10; for Serum Cholesterol Decrease: vs control. The procedure: C. Assay of Antihypercholesterolemic Activity in Cholesterol-fed Hamsters
Inhibition of ACAT activity in the gut reduces the absorption of cholesterol in cholesterol-fed animals. Hamsters weighing approximately 100 g, were maintained on a diet supplemented with 0.8% cholesterol. The treatment group received 1-100 mg/kg/day, p.o., of the test compound dissolved in 500 μl of corn oil for a period of two weeks. The control group were pair-fed to the treatment group and were dosed with 500 μl of the corn oil vehicle. At sacrifice, the hamsters were anesthetized with CO2 and exsanguinated via cardiac puncture. Total serum cholesterol was determined on a Du Pont aca® IV. The data were expressed in terms of mg cholesterol per 100 ml of serum (mg %).

In assay [2] the test system is murine macrophage-like cell line J774.A1. As to the kind of experiment: Inhibition of cholesterol esterification in mammalian cells (macrophage assay). The format is cell-based. The note with it: J774.A1 macrophages loaded with ac-LDL, 14C-oleic acid; read-out: Cholesterol Esterification IC50. Put shortly: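 Murine J774.A1 macrophages at 37 °C received 34 μg acetylated human LDL in 10% FBS-DMEM from 24 h, compound in DMSO at 41 h, then a 0.1 mM 14C-oleic acid–BSA pulse from 43 to 45 h. Labelled cholesteryl ester was separated by TLC, counted and normalised to Lowry protein.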

SMILES strings stand for the structures. pIC50: −log10 of the molar value.

With `CCCCCCCN(CCCCCSc1nc(-c2ccccc2)c(-c2ccccc2)[nH]1)C(=O)Nc1ccc(F)cc1F` [Example 1, N'-(2,4-difluorophenyl)-N-[5-(4,5-diphenyl-1H-imidazol-2-ylthio)pentyl]-N-heptylurea], the “Serum Cholesterol, Treated” value in assay [1] (1 mg/kg/day p.o., control 400 ± 25) is recorded as 295 ± 12 mg %; in assay [1] (3 mg/kg/day p.o., control 381 ± 17) it was 279 ± 16 mg %; in assay [1] (10 mg/kg/day p.o., control 371 ± 7) it was 201 ± 12 mg %; in assay [1] (30 mg/kg/day p.o., control 368 ± 15), 197 ± 11 mg %; in assay [1] (100 mg/kg/day p.o., control 400 ± 17), 62 ± 8 mg %. Further, the “Serum Cholesterol Decrease” value in assay [1] (1 mg/kg/day p.o.) came to 26%; in assay [1] (3 mg/kg/day p.o.), 27%; in assay [1] (10 mg/kg/day p.o.) it was 46%; in assay [1] (30 mg/kg/day p.o.) it was 46%; in assay [1] (100 mg/kg/day p.o.), 60%. The pIC50 (in general, −log10 of the IC50, conventionally taken in molar units) in assay [2] is 6.00.
